ChEMBL document CHEMBL1201862, “PubChem BioAssay data set” (2004)
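Each compound was tested at five concentrations against cells in 96-well plates for 48 hours. Abbreviation: GI50, concentration required for 50% inhibition of growth.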 Calls of active or inactive are those of the source. Rule as the data show it: active = GI50 up to about 1.1 µM and inactive = higher.

How the values were obtained:
Test in all cases: NCI-60 cell line screen, 48 h
NCI-H522 = tested on: NCI-H522
EKVX = tested on: EKVX
SNB-19 = tested on: SNB-19
UACC-62 = tested on: UACC-62
UACC-257 = tested on: UACC-257
NCI-H226 = tested on: NCI-H226
SK-MEL-2 = tested on: SK-MEL-2
HL-60 = tested on: HL-60
OVCAR-4 = tested on: OVCAR-4
OVCAR-5 = tested on: OVCAR-5
SNB-75 = tested on: SNB-75
HOP-18 = tested on: HOP-18
KM12 = tested on: KM12
HT-29 = tested on: HT-29
SW-620 = tested on: SW-620
NCI-H460 = tested on: NCI-H460
OVCAR-8 = tested on: OVCAR-8
A498 = tested on: A498
K562 = tested on: K562
SNB-78 = tested on: SNB-78
CAKI-1 = tested on: CAKI-1
MOLT-4 = tested on: MOLT-4
RXF 393 = tested on: RXF 393
OVCAR-3 = tested on: OVCAR-3
U-251 = tested on: U-251
SK-OV-3 = tested on: SK-OV-3
A549 = tested on: A549
UO-31 = tested on: UO-31
RPMI-8226 = tested on: RPMI-8226
SF-539 = tested on: SF-539
IGROV-1 = tested on: IGROV-1
HOP-92 = tested on: HOP-92
MCF7 = tested on: MCF7
SK-MEL-5 = tested on: SK-MEL-5
DLD-1 = tested on: DLD-1
CCRF-CEM = tested on: CCRF-CEM
SF-268 = tested on: SF-268
DMS-273 = tested on: DMS-273
HOP-62 = tested on: HOP-62
COLO 205 = tested on: COLO 205
LOX IMVI = tested on: LOX IMVI
XF498 = tested on: XF498
HCT-15 = tested on: HCT-15
SK-MEL-28 = tested on: SK-MEL-28
NCI/ADR-RES = tested on: NCI/ADR-RES
Malme-3M = tested on: Malme-3M
DMS-114 = tested on: DMS-114
SN12C = tested on: SN12C
SF-295 = tested on: SF-295
HCC 2998 = tested on: HCC 2998
HCT-116 = tested on: HCT-116
M19-MEL = tested on: M19-MEL
NCI-H23 = tested on: NCI-H23
KM-20L2 = tested on: KM-20L2

COc1ccc(C2COc3cc(OC(C)=O)c(OC(C)=O)cc3C2)cc1 (centres undefined)
GI50 (NCI-H522): 1.97 µM (inactive) | GI50 (EKVX): 27.2 µM (inactive) | GI50 (SNB-19): 7.74 µM (inactive) | GI50 (UACC-62): 19 µM (inactive) | GI50 (UACC-257): 23.6 µM (inactive) | GI50 (NCI-H226): 24.3 µM (inactive) | GI50 (SK-MEL-2): 31.7 µM (inactive) | GI50 (HL-60): 2.54 µM (inactive) | GI50 (OVCAR-4): 16.7 µM (inactive) | GI50 (OVCAR-5): 27.1 µM (inactive) | GI50 (SNB-75): 7.76 µM (inactive) | GI50 (HOP-18): 2.78 µM (inactive) | GI50 (KM12): 11.4 µM (inactive) | GI50 (HT-29): 28.2 µM (inactive) | GI50 (SW-620): 14.3 µM (inactive) | GI50 (NCI-H460): 13.9 µM (inactive) | GI50 (OVCAR-8): 18.8 µM (inactive) | GI50 (A498): 4.54 µM (inactive) | GI50 (K562): 16.3 µM (inactive) | GI50 (SNB-78): 26.1 µM (inactive) | GI50 (CAKI-1): 23 µM (inactive) | GI50 (MOLT-4): 5.66 µM (inactive) | GI50 (RXF 393): 15.5 µM (inactive) | GI50 (OVCAR-3): 19.6 µM (inactive) | GI50 (U-251): 6.49 µM (inactive) | GI50 (SK-OV-3): 40.1 µM (inactive) | GI50 (A549): 11.9 µM (inactive) | GI50 (UO-31): 19.5 µM (inactive) | GI50 (RPMI-8226): 5.97 µM (inactive) | GI50 (SF-539): 19.9 µM (inactive) | GI50 (IGROV-1): 26.2 µM (inactive) | GI50 (HOP-92): 9.08 µM (inactive) | GI50 (MCF7): 29.4 µM (inactive) | GI50 (SK-MEL-5): 25.9 µM (inactive) | GI50 (DLD-1): 20.5 µM (inactive) | GI50 (CCRF-CEM): 3.09 µM (inactive) | GI50 (SF-268): 12.3 µM (inactive) | GI50 (DMS-273): 17.9 µM (inactive) | GI50 (HOP-62): 31.6 µM (inactive) | GI50 (COLO 205): 20 µM (inactive) | GI50 (LOX IMVI): 16.5 µM (inactive) | GI50 (XF498): 8.49 µM (inactive) | GI50 (HCT-15): 20.3 µM | GI50 (SK-MEL-28): 23.8 µM (inactive) | GI50 (NCI/ADR-RES): 36.3 µM (inactive) | GI50 (Malme-3M): 23.2 µM (inactive) | GI50 (DMS-114): 5.65 µM (inactive) | GI50 (SN12C): 17.5 µM (inactive) | GI50 (SF-295): 14.1 µM (inactive) | GI50 (HCC 2998): 23.2 µM (inactive) | GI50 (HCT-116): 20.4 µM (inactive) | GI50 (M19-MEL): 14.2 µM (inactive) | GI50 (NCI-H23): 27.5 µM (inactive) | GI50 (KM-20L2): 31.4 µM (inactive)
